This passage reports IC50 results from patent US20260176265A1 (Cancer Research Technology Limited, priority 2022, published 2026).

Assay [1] has as its target CtermHisTag-mEGFR Triple Mutant - C797S, L858R, T790M (Homo sapiens, UniProt P00533, C797S/L858R/T790M). Kind of assay: TR-FRET probe displacement assay, EGFR triple mutant. It counts as binding. The conditions noted are these: T790M 1.25 nM, probe 100 nM, 30 mins room temperature. In a few lines: (§1)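 Ten-point compound series, 100000 to 3 nM final, tested against His-tagged EGFR (wild type or C797S/L858R/T790M) for probe displacement. TR-FRET read at Ex337 nm, Em490/520 nm; run in technical replicate, biological duplicate.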
Background: In TR-FRET formats the signal depends on donor and acceptor labels being close together.

Assay [2] has as its target CtermHisTag-mEGFR Wild type (Homo sapiens, UniProt P00533). The experiment in a line: TR-FRET probe displacement assay, EGFR wild type. It counts as binding. The following applies: EGFR wild type 1.25 nM, probe 100 nM, 30 mins room temperature. In a few lines:
as §1

For assay [3], the target named is T1, Phospho-EGFR (Tyr1068) in H1975 cells (Homo sapiens, UniProt P00533, L858R/T790M).
T1 construct: host or cells: H1975
The experiment in a line: HTRF pEGFR/total EGFR assay in H1975 cells. It is filed as cell-based. The conditions noted are these: compound 3 hours, ratio pEGFR/total EGFR. In a few lines:
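H1975 cells (EGFR L858R/T790M) adhered 24 h, then compound-treated for 3 h in duplicate, 0.1% DMSO final. Lysates read by HTRF at 665/620 nm for phospho-Tyr1068 and total EGFR. Value is pEGFR/total EGFR ratio as % of 0 uM control.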

The target in assay [4] is T2, Phospho-EGFR (Tyr1068) in H1975 C797S cells (Homo sapiens, UniProt P00533, C797S/L858R/T790M).
T2 construct: endogenous in cells; host or cells: H1975 C797S (CRISPR-edited in house from ATCC CRL-5908)
T2 sequence (P00533 25-1210 T790M/C797S/L858R): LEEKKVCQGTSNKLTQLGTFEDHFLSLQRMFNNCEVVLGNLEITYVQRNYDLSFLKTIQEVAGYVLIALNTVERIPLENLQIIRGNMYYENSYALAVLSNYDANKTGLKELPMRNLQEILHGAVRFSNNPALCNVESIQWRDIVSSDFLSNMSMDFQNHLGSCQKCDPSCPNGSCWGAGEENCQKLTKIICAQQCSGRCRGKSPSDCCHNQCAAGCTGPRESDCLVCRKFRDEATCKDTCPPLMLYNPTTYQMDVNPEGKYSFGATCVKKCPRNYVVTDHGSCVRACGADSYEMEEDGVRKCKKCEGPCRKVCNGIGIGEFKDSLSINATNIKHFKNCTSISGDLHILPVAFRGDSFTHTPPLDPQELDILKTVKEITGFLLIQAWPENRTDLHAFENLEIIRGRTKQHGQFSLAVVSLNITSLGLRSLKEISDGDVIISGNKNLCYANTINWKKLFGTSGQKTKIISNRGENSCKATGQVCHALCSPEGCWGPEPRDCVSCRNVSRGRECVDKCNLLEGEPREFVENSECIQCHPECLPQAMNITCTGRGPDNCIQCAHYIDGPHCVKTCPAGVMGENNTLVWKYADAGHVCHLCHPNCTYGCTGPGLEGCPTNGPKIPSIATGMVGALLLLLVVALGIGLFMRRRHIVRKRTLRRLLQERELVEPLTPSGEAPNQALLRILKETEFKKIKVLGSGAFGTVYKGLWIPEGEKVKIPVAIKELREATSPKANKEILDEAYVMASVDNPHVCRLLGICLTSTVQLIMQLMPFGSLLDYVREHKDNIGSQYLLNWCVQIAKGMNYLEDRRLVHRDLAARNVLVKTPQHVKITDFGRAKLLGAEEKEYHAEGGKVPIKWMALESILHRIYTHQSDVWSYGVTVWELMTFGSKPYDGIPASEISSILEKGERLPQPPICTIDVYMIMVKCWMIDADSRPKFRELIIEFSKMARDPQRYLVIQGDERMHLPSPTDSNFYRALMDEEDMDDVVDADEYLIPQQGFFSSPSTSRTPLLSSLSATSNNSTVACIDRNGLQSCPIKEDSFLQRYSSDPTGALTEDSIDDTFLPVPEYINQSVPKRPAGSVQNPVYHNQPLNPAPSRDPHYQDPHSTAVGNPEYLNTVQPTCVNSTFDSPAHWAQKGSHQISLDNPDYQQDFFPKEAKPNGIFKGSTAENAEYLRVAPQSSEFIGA
The experiment in a line: HTRF pEGFR/total EGFR assay in H1975 C797S cells. It counts as cell-based. The following applies: H1975 C797S cells (CRISPR), compound 3 hours, ratio pEGFR/total EGFR. In a few lines:
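H1975 cells carrying CRISPR-engineered EGFR C797S (with L858R/T790M) were exposed to compounds for 3 h at 0.1% DMSO, in duplicate. Lysates were read with HTRF kits for pEGFR Tyr1068 and total EGFR at 665/620 nm. Values are the pEGFR/total EGFR ratio as percent of the 0 uM control.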

Assay [5] deals with T3, Phospho-EGFR (Tyr1068) in A431 cells (Homo sapiens, UniProt P00533).
T3 construct: endogenous in cells; host or cells: A431
T3 sequence (P00533 25-1210): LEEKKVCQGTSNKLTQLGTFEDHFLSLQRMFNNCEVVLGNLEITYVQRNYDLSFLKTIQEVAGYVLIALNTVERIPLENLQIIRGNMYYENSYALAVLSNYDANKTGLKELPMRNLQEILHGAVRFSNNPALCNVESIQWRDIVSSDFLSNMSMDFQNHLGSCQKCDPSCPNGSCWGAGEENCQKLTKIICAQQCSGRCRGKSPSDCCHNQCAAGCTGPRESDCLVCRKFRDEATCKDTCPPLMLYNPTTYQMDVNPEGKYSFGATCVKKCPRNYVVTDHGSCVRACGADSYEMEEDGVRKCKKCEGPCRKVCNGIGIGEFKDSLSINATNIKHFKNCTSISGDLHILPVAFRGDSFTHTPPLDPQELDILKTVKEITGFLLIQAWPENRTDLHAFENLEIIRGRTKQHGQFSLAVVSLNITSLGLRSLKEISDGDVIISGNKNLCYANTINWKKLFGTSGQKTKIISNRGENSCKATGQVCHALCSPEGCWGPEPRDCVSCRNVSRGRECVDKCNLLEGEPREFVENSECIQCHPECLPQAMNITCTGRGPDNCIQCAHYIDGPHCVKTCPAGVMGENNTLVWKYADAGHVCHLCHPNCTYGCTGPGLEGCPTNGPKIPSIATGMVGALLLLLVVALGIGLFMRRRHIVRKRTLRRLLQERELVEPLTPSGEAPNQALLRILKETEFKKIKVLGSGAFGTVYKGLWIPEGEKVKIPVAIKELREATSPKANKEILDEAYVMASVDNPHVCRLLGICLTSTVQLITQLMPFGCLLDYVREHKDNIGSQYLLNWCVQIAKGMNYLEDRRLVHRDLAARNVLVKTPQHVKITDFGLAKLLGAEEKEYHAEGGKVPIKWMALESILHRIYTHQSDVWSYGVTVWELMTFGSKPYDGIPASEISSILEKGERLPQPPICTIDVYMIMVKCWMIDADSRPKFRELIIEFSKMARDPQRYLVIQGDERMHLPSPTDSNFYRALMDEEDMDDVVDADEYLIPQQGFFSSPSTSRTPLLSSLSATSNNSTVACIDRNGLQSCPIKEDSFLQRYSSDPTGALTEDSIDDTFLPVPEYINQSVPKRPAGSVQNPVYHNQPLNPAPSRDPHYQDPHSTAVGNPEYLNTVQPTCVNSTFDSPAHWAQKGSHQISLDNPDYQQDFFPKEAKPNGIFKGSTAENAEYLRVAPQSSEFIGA
Kind of assay: HTRF pEGFR/total EGFR assay in A431 cells (EGF stimulated). It is filed as cell-based. The following applies: compound 2.5 hours then 100 ng/ml EGF 30 mins, ratio pEGFR/total EGFR. In a few lines:
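A431 cells pretreated with compounds 2.5 h (0.1% DMSO), then stimulated with 100 ng/ml EGF for 30 min. Lysates assayed by HTRF for phospho-EGFR (Tyr1068) and total EGFR, read at 665/620 nm. Values are pEGFR/total EGFR ratio as percentage of 0uM control.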

Sequence of CtermHisTag-mEGFR Triple Mutant - C797S, L858R, T790M (P00533 25-1210 T790M/C797S/L858R): as the sequence (P00533 25-1210 T790M/C797S/L858R) above
Sequence of CtermHisTag-mEGFR Wild type (P00533 25-1210): as the sequence (P00533 25-1210) above

By IC50 is commonly meant the midpoint of a concentration-inhibition curve. Take `C#Cc1cc(OCCCc2ccccc2)nc2nc(Nc3ccc(N4CCN(C)CC4)cc3)ncc12` [Example 22, 5-ethynyl-N-[4-(4-methylpiperazin-1-yl)phenyl]-7-(3-phenylpropoxy)pyrido[2,3-d]pyrimidin-2-amine]: the IC50 in assay [1] was 100 to 1000 nM; in assay [2], more than 10000 nM; in assay [3], more than 3000 nM; in assay [4], more than 3000 nM; in assay [5], more than 3000 nM.

With `C#Cc1cc(NC(=O)N2CCCC2)nc2nc(Nc3ccc(N4CCN(C)CC4)cc3)ncc12` [Example 56, N-(5-ethynyl-2-{[4-(4-methylpiperazin-1-yl)phenyl]amino}pyrido[2,3-d]pyrimidin-7-yl)pyrrolidine-1-carboxamide], the IC50 in assay [1] is 100 to 1000 nM; in assay [2] it was more than 10000 nM; in assay [3], 1000 to 3000 nM; in assay [4], more than 3000 nM; in assay [5] it was more than 3000 nM.

On to `C#Cc1cc(NC(=O)NCc2cncn2C)nc2nc(Nc3ccc(N4CCN(C)CC4)cc3)ncc12` [Example 46, 1-(5-ethynyl-2-{[4-(4-methylpiperazin-1-yl)phenyl]amino}pyrido[2,3-d]pyrimidin-7-yl)-3-[(3-methylmidazol-4-yl)methyl]urea], for which the IC50 in assay [1] is less than 20 nM; in assay [2], less than 1000 nM; in assay [3] it was more than 3000 nM; in assay [4], more than 3000 nM; in assay [5], more than 3000 nM.

Turning to `C#Cc1cc(NC(=O)NCc2ccnn2C)nc2nc(Nc3ccc(N4CCN(C)CC4)cc3)ncc12` [Example 48, 1-(5-ethynyl-2-{[4-(4-methylpiperazin-1-yl)phenyl]amino}pyrido[2,3-d]pyrimidin-7-yl)-3-[(2-methylpyrazol-3-yl)methyl]urea], the IC50 in assay [1] was less than 20 nM; in assay [2], less than 1000 nM; in assay [3] it was less than 500 nM; in assay [4] it was less than 500 nM; in assay [5], more than 3000 nM.

`C#Cc1cc(N2C(=O)NCC23CCCC3)nc2nc(Nc3ccc(N(C)C(=O)CN(C)C)cc3)ncc12` [Example 94, 2-(Dimethylamino)-N-{4-[(5-ethynyl-7-{2-oxo-1,3-diazaspiro[4.4]nonan-1-yl}pyrido[2,3-d]pyrimidin-2-yl)amino]phenyl}-N-methylacetamide]: the half-maximal inhibitory concentration (IC50) in assay [1] is 20 to 100 nM; in assay [2], less than 1000 nM; in assay [3] it was 1000 to 3000 nM; in assay [4] it was 1000 to 3000 nM; in assay [5], 1000 to 3000 nM.

Regarding `C#Cc1cc(NC(=O)OC2CCCC2)nc2nc(Nc3ccc(N4CCN(C)CC4)cc3)ncc12` [Example 65, cyclopentyl (5-ethynyl-2-((4-(4-methylpiperazin-1-yl)phenyl)amino)pyrido[2,3-d]pyrimidin-7-yl)carbamate], the 50% inhibitory concentration (IC50) in assay [1] is 100 to 1000 nM; in assay [2] it was more than 10000 nM; in assay [3] it was 1000 to 3000 nM; in assay [4], more than 3000 nM; in assay [5], more than 3000 nM.

Consider `C#Cc1cc(NC(=O)NCc2ccccn2)nc2nc(Nc3ccc(N4CCN(C)CC4)cc3)ncc12` [Example 49, 3-(5-ethynyl-2-{[4-(4-methylpiperazin-1-yl)phenyl]amino}pyrido[2,3-d]pyrimidin-7-yl)-1-(pyridin-2-ylmethyl)urea], for which the IC50 in assay [1] is 20 to 100 nM; in assay [2], less than 1000 nM; in assay [3], 500 to 1000 nM; in assay [4], 1000 to 3000 nM; in assay [5], more than 3000 nM.

For `C#Cc1cc(NC(C)=O)nc2nc(Nc3ccc(N(C)CCN(C)C)cc3)ncc12` [Example 28], the IC50 in assay [1] is less than 20 nM; in assay [2] it was more than 10000 nM; in assay [3] it was more than 3000 nM; in assay [4], more than 3000 nM; in assay [5] it was more than 3000 nM.

With `C#Cc1cc(NC(=O)N2Cc3ccccc3C2)nc2nc(Nc3ccc(N4CCN(C)CC4)cc3)ncc12` [Example 58, N-(5-ethynyl-2-{[4-(4-methylpiperazin-1-yl)phenyl]amino}pyrido[2,3-d]pyrimidin-7-yl)-1,3-dihydroisoindole-2-carboxamide], the IC50 is 100 to 1000 nM in assay [1]; more than 10000 nM in assay [2]; more than 3000 nM in assay [3]; more than 3000 nM in assay [4]; more than 3000 nM in assay [5].

Take `C#Cc1cc(N2C(=O)NC[C@H]2C(C)C)nc2nc(Nc3ccc(N4CCN(C)CC4)cc3)ncc12` [Example 100, (5R)-1-(5-Ethynyl-2-{[4-(4-methylpiperazin-1-yl)phenyl]amino}pyrido[2,3-d]pyrimidin-7-yl)-5-isopropylmidazolidin-2-one]: the IC50 in assay [1] was 100 to 1000 nM; in assay [2] it was more than 10000 nM; in assay [3], 500 to 1000 nM; in assay [4], 1000 to 3000 nM; in assay [5], more than 3000 nM.

For the compound `C#Cc1cc(NC(=O)NC2CCCC2)nc2nc(Nc3ccc(N4CCOCC4)cc3)ncc12` [Example 75], the IC50 in assay [1] was less than 20 nM; in assay [2], less than 1000 nM; in assay [3], less than 500 nM; in assay [4] it was less than 500 nM; in assay [5], less than 500 nM.

`C#Cc1cc(NC(=O)NC2CCCC2)nc2nc(Nc3ccc(N4CCN(C)CC4)cc3)ncc12` [Example 38, 1-cyclopentyl-3-(5-ethynyl-2-((4-(4-methylpiperazin-1-yl)phenyl)amino)pyrido[2,3-d]pyrimidin-7-yl)urea]: the concentration for half-maximal inhibition (IC50) in assay [1] was less than 20 nM; in assay [2], less than 1000 nM; in assay [3], less than 500 nM; in assay [4], less than 500 nM; in assay [5] it was less than 500 nM.

In the case of `C#Cc1cc(N(C)C(=O)N(C)C2CCCC2)nc2nc(Nc3ccc(N4CCN(C)CC4)cc3)ncc12` [Example 123, 3-Cyclopentyl-1-(5-ethynyl-2-{[4-(4-methylpiperazin-1-yl)phenyl]amino}pyrido[2,3-d]pyrimidin-7-yl)-1,3-dimethylurea], the IC50 is 1000 to 50000 nM in assay [1]; more than 10000 nM in assay [2]; more than 3000 nM in assay [3]; more than 3000 nM in assay [4]; more than 3000 nM in assay [5].

As for `C#Cc1cc(OCc2ccccc2)nc2nc(Nc3ccc(N4CCN(C)CC4)cc3)ncc12` [Example 20, 7-(benzyloxy)-5-ethynyl-N-[4-(4-methylpiperazin-1-yl)phenyl]pyrido[2,3-d]pyrimidin-2-amine], the half-inhibitory concentration (IC50) in assay [1] is 100 to 1000 nM; in assay [2], more than 10000 nM; in assay [3], more than 3000 nM; in assay [4], more than 3000 nM; in assay [5], more than 3000 nM.

For `C#Cc1cc(N2C(=O)NCC23CCCC3)nc2nc(Nc3ccc(OCCN(C)C)cc3)ncc12` [Example 95], the IC50 in assay [1] is 20 to 100 nM; in assay [2], less than 1000 nM; in assay [3] it was 1000 to 3000 nM; in assay [4], 1000 to 3000 nM; in assay [5], 500 to 1000 nM.

Turning to `C#Cc1cc(N2C(=O)NCC2C(C)C)nc2nc(Nc3ccc(N4CCN(C)CC4)cc3)ncc12` (centres unmarked) [Example 64, 1-(5-ethynyl-2-{[4-(4-methylpiperazin-1-yl)phenyl]amino}pyrido[2,3-d]pyrimidin-7-yl)-5-isopropylmidazolidin-2-one], the half-maximal inhibitory concentration (IC50) in assay [1] was less than 20 nM; in assay [2], 1000 to 10000 nM; in assay [3] it was less than 500 nM; in assay [4], 1000 to 3000 nM; in assay [5], less than 500 nM.

Turning to `C#Cc1cc(N2C(=O)NCC23CCCC3)nc2nc(Nc3ccc(S(=O)(=O)N(C)C)cc3)ncc12` [Example 97, 4-[(5-Ethynyl-7-{2-oxo-1,3-diazaspiro[4.4]nonan-1-yl}pyrido[2,3-d]pyrimidin-2-yl)amino]-N,N-dimethylbenzenesulfonamide], the IC50 in assay [1] is 20 to 100 nM; in assay [2] it was more than 10000 nM; in assay [3], more than 3000 nM; in assay [4], more than 3000 nM; in assay [5], more than 3000 nM.

Turning to `C#Cc1cc(N2C(=O)NCC23CCCC3)nc2nc(Nc3ccc(S(C)(=O)=O)cc3)ncc12` [Example 96, 1-{5-Ethynyl-2-[(4-methanesulfonylphenyl)amino]pyrido[2,3-d]pyrimidin-7-yl}-1,3-diazaspiro[4.4]nonan-2-one], the IC50 in assay [1] is less than 20 nM; in assay [2] it was less than 1000 nM; in assay [3], 500 to 1000 nM; in assay [4] it was 1000 to 3000 nM; in assay [5] it was 1000 to 3000 nM.

As to `C#Cc1cc(NC(=O)N[C@H]2CCN(C(C)=O)C2)nc2nc(Nc3ccc(N4CCN(C)CC4)cc3)ncc12` [Example 53, 3-[(3S)-1-acetylpyrrolidin-3-yl]-1-(5-ethynyl-2-{[4-(4-methylpiperazin-1-yl)phenyl]amino}pyrido[2,3-d]pyrimidin-7-yl)urea], the IC50 is less than 20 nM in assay [1]; less than 1000 nM in assay [2]; 1000 to 3000 nM in assay [3]; more than 3000 nM in assay [4]; more than 3000 nM in assay [5].
